Data reported in US7105543B2, “4-, 5-, 6- and 7-indole derivatives useful for the treatment of CNS disorders” (H. Lundbeck A/S, priority 2000, dated 2006).
Read-outs that look alike come from different tables or passages of the source.

Key:
D4 receptor = molecular target: T1, D4 receptor (Homo sapiens, UniProt P21917); details: various in vitro efficacy assays, literature; cited from earlier work
T1 sequence (P21917 1-419): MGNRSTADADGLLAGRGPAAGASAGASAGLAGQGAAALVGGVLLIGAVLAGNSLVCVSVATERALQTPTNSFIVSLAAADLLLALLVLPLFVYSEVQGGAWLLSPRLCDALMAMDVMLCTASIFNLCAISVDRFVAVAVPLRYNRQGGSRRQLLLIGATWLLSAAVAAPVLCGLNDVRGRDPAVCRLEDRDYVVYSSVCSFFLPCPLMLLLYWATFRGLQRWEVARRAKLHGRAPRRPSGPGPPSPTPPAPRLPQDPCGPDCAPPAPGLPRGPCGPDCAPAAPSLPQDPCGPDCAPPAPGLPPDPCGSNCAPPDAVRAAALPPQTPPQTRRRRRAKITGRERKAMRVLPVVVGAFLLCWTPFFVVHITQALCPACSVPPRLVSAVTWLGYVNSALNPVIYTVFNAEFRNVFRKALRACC

dopamine D2 receptor = molecular target: T2, dopamine D2 receptor (Rattus norvegicus, UniProt P61169); experiment: Inhibition of the binding of [3H]Spiperone to D2 receptors
T2 construct: from tissue
Description: Inhibition of the Binding of [^3H]Spiperone to D2 Receptors
The compounds were tested with respect to affinity for the dopamine D2 receptor by determining their ability to inhibit the binding of [^3H]Spiperone to D2 receptors by the method of Hyttel et al. J. Neurochem. 1985, 44, 1615.

[1] = molecular target: T3, human cloned dopamine D4.2 receptors expressed in CHO-cells (Homo sapiens, UniProt P21917, DEL265-296); experiment: Inhibition of binding of [3H]YM-09151-2 to D4.2 receptors
T3 construct: expressed in transfected cells; host or cells: CHO cells
T3 sequence (P21917 with tags, fused parts or gaps DEL265-296): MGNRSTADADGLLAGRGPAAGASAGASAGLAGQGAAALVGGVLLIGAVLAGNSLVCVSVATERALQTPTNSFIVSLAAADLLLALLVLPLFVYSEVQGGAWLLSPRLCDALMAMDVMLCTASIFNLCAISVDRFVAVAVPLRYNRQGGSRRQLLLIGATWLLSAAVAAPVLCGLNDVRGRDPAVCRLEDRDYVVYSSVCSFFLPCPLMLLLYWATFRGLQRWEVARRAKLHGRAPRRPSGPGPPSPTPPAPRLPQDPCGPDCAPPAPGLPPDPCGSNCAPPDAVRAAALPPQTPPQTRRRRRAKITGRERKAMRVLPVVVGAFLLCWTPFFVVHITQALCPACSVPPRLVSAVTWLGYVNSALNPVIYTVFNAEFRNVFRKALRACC
Description: Inhibition of Binding of [^3H]YM-09151-2 to D4.2 Receptors
By this method, the inhibition by drugs of the binding of [^3H]YM-09151-2 (0.06 nM) to membranes of human cloned dopamine D4.2 receptors expressed in CHO-cells is determined in vitro. The method is modified from NEN Life Science Products, Inc., technical data certificate PC2533-10/96.

[2] = inhibition of [3H]Spiperone binding, read-out: D2-Receptor IC50

T2 sequence (P61169 whole entry): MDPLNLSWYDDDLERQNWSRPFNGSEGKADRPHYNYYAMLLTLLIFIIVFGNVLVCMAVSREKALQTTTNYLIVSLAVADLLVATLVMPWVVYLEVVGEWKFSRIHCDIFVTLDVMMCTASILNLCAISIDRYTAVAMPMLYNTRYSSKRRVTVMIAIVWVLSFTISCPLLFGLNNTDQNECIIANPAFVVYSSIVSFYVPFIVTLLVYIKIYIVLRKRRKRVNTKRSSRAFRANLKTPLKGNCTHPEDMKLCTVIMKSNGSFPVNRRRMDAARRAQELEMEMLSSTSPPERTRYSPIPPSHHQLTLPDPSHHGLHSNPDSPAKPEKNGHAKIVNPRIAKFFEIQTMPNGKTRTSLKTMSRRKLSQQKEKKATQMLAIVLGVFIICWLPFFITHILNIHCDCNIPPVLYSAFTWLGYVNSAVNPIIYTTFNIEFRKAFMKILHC

Structure (SMILES)	Functional activity at the D4 receptor (in words) (D4 receptor)	IC50 (dopamine D2 receptor; [2]) [nM]	IC50 [1] [nM]	IC50 (dopamine D2 receptor) [nM]	D4-receptor, second figure after the slash in the IC50 cell ([1]; printed as '<50/89', meaning of the second figure not explained) [nM]
CC(C)Oc1cccnc1N(C)C1CCN(Cc2ccccc2)CC1 [Compound U-101958]	partial D4 receptor agonists				
c1ccc(N2CCN(Cc3ccc4[nH]ccc4c3)CC2)cc1 [Compound 1d, 5-[[4-phenylpiperazin-1-yl]methyl]-1H-indole]		940	31		
COc1ccc(N2CCN(Cc3ccc4cc[nH]c4c3)CC2)cc1 [Compound 1g, 6-[[4-(4-methoxyphenyl)piperazin-1-yl]methyl]-1H-indole]			9.1	> 10000	
c1cc2cc(CN3CCN(c4ccc5[nH]ccc5c4)CC3)ccc2[nH]1 [Compound 1b, 5-[[4-(5-indolyl)piperazin-1-yl]methyl]-1H-indole]		1000	< 50		89
Clc1ccc(N2CCN(Cc3ccc4[nH]ccc4c3)CC2)cc1 [Compound 1a, 5-[[4-(4-chlorophenyl)piperazin-1-yl]methyl]-1H-indole]			7.5	1700	
Clc1ccc(N2CCN(Cc3ccc4cc[nH]c4c3)CC2)cc1 [Compound 1f, 6-[[4-(4-chlorophenyl)piperazin-1-yl]methyl]-1H-indole]				> 10000	
COc1ccc(N2CCN(Cc3ccc4[nH]ccc4c3)CC2)cc1 [Compound 1c, 5-[[4-(4-methoxyphenyl)piperazin-1-yl]methyl]-1H-indole]			25	> 10000	
Clc1ccc(C2=CCN(Cc3ccc4[nH]ccc4c3)CC2)cc1 [Compound 1e, 5-[4-(4-Chlorophenyl)-3,6-dihydro-2H-pyridin-1-ylmethyl]-1H-indole]		190	1.4		
